Measured values published in patent US12365946B2, “Compositions and methods for the diagnosis and treatment of lymphatic system disorders” (THE CHILDREN'S HOSPITAL OF PHILADELPHIA, priority 2018, dated 2025).

What was measured:
mTOR = mTOR (Homo sapiens, UniProt P42345); conditions: cell-free assays; cited from earlier work
[1] = tested on: ERK activation/phosphorylation in cells expressing WT and mutant BRAF or PTPN11; experiment: pERK levels in Ea.hy926 cells expressing WT and mutant BRAF or PTPN11, MEK inhibitor titration; assay type: cell-based, human; conditions: cells expressing WT and mutant BRAF or PTPN11, FIGS. 4 and 5
Source text: A cellular model for studying the effects of potential ERK-activating mutations was developed. We have retrovirally expressed wild-type and mutant versions of proteins in the cell line Ea.hy926. The Ea.hy926 cell line is a fusion of human umbilical vein endothelial cells with a […] cell line. It is immortalized and retains some characteristics of endothelial cells.
In an effort to identify inhibitors with greater therapeutic efficacy, we have treated cells expressing WT and mutant BRAF or PTPN11 with various MEK inhibitors. […] BRAF F486S consistently induces ERK activation over WT levels, although the specific fold increase varies from gel to gel.

[2] = tested on: HDLECs expressing ARAF mutation S214P; experiment: Immunofluorescence staining and western blotting of HDLECs expressing ARAF-S214P; assay type: cell-based, human; conditions: for biochemical and morphological reversal of the effects induced by the ARAF mutation / cell morphological differences induced by ARAF-S214P: HDLECs; for VE-cadherin accumulation at the cell membrane / levels of pERK: HDLECs expressing ARAF-S214P
Source text: We developed a cellular model to better understand and study the effects of potential ERK-activating mutations was developed by using primary lymphatic endothelial cells instead of established cell lines to capture the characteristics of mutations in the disease relevant cell type. We have retrovirally expressed wild-type and mutant versions of proteins in the human dermal lymphatic endothelial cells (HDLECs).
The ARAF sequence, from pCDNA3.1-F2S2-ARAF-WT or -S214P constructs as previously indicated, was cut with BamHI/XhoI and introduced into the BglII/XhoI sites of a modified version of the pMSCV plasmid that contains aminoterminal FLAG and HA tags. Viral production was performed using Fugene, with 8 μg of total DNA (pMSCV-ARAF-WT or -S214P together with envelope and packaging plasmids) and 18 μl of the transfection reagent in HEK293T. After 72 h, viral supernatant was collected and filtered. HDLECs were infected by replacing the cell culture medium with the viral supernatant, supplemented with 8 μg ml^−1 Polybrene and filtered through a 0.45 μm filter. Cells were spinfected at 650 g for 90 min, and subsequently cultured for 6 h at which point the viral supernatant was replaced by standard culture medium. Transduced HDLECs were cultured for 48 h before use in experiments. Transduction efficiencies observed by HA staining were between 40% and 60%.
Round (12 mm) coverslips (VWR) were coated with 0.1% gelatin in water for 10 min in 24-well plates (Corning), and then air-dried for 15 min. […] Cells were washed in warm serum-free Dulbecco's modified Eagle's medium and fixed in 4% paraformaldehyde. Fixed cells were washed twice with PBS and twice with 0.1% BSA in PBS. Cells were permeablized and blocked by incubation with 10% normal donkey serum (Jackson Immunoresearch) and 0.3% Triton X-100 (Sigma Aldrich) in PBS. VE-cadherin antibody (Thermo Fisher Scientific) was diluted (final concentration: 2 μg ml^−1) in 0.01% normal donkey serum, 0.1% BSA and 0.3% Triton X-100 in PBS, and staining was performed for 1 h. Coverslips were washed twice with 0.1% BSA in PBS. Goat-anti-rabbit Alexa546 (Thermo Fisher Scientific; final concentration: 8 μg ml-1) and phalloidin Alexa350 (Thermo Fisher Scientific; final concentration: 5 units ml-1) were diluted in 0.01% normal donkey serum, 0.1% BSA and 0.3% Triton X-100 in PBS, and staining was performed for 1 h. When used, HA-Tag (6E2) mouse antibody (cat. no. 2367, Cell Signaling Technology) was diluted 1:100 in 0.1% BSA and 0.3% Triton X-100 in PBS, and staining was performed for 1 h. Coverslips were washed twice with 0.1% BSA in PBS and twice with PBS. Coverslips were dipped in water to remove residual salts, and mounted to slides using Prolong Gold antifade reagent (Thermo Fisher Scientific). Image acquisition was performed on a Leica DM6000 motorized upright microscope with a Photometrics HQ2 high-resolution monochrome CCD (charge-coupled device) camera using LAS AF software (Leica Microsystems). Z-stacks were acquired at ×10 magnification. Images were further processed in the Fiji software package42. Brightness and contrast adjustments were made. Identical brightness and contrast settings were applied to all images. Fluorescence values were measured in regions of interest (ROIs) drawn to contain entire individual cells, or in ROIs drawn to contain the entire cell body but exclude the cell-cell junction. From those measured values, a value for the plasma membrane was derived (total cell-intracellular), and the ratio of plasma membrane to intracellular values was derived and plotted. Additionally, the length and width of cells were measured with the line tool and ROI manager. For both analyses, five clearly ARAF-expressing cells, as determined by HA staining, were analyzed per ×10 field. Five ×10 fields were acquired per condition per experiment. Experiments were conducted with cells from 3 independent thaws and transductions of HDLECs, for a total of 75 cells per condition. […]

[3] = tested on: zebrafish larvae overexpressing KRAS-G12D mutant in lymphatics; experiment: Zebrafish model overexpressing KRAS-G12D in lymphatics; assay type: in vivo; conditions: FIG. 19
MM cell lines = conditions: units printed inside the range; cited from earlier work
[4] = tested on: Abl1, AKT3, c-RAF, CamK1, CDK2, c-Met; conditions: cited from earlier work

SMILES	IC50 (mTOR) [nM]	pERK levels, titration curves [1]	biochemical and morphological reversal of the effects induced by the ARAF mutation [2]	cell morphological differences induced by ARAF-S214P [2]	VE-cadherin accumulation at the cell membrane [2]	levels of pERK [2]	disorganized lymphatic branching [3]	edema [3]	IC50 (MM cell lines) [nM]	activity to Abl1, AKT3, c-RAF, CamK1, CDK2, c-Met, etc. [4]
CO[C@H]1C[C@@H]2CC[C@@H](C)[C@@](O)(O2)C(=O)C(=O)N2CCCC[C@H]2C(=O)O[C@H]([C@H](C)C[C@@H]2CC[C@@H](OCCO)[C@H](OC)C2)CC(=O)[C@H](C)/C=C(\C)[C@@H](O)[C@@H](OC)C(=O)[C@H](C)C[C@H](C)/C=C/C=C/C=C/1C [Everolimus (RAD001), Everolimus]	1.6 to 2.4	–	–	–	–	–	–	–	–	–
O=C(NC[C@H](O)CO)c1ccncc1Nc1ccc(I)cc1F [Pimasertib (AS-703026), Pimasertib]	–	reducing pERK levels in cells in a dose dependent manner	reversal	rescued	increased	reduced	improvement	decrease	5 to 2000	–
Cn1c(=O)c(F)c(Nc2ccc(I)cc2F)c2c(=O)n(C[C@@H](O)CO)cnc21 [TAK-733]	–	–	reversal	rescued	increased	reduced	improvement	decrease	–	inactive to Abl1, AKT3, c-RAF,
